Entries after “also recorded” stand apart in the source; their conditions may differ. Like-named read-outs stand apart in the source and are kept apart here.
Tests used:
[1] = test system: Glucose dehydrogenase (immobilized enzyme); conditions: substrate glucose, NADP; 1M additive/buffer pH 7.0; 25° C. for 30 minutes
Experimental: (§1) The solution was stirred at 25° C. for 30 minutes to allow the enzyme to react with the substrate. Then, WST1 and mPMS were added for color development. Absorbance was measured with a spectrophotometer.

[2] = test system: Glutamate dehydrogenase (immobilized enzyme); conditions: substrate monosodium glutamate, NADP; 1M additive/buffer pH 7.0; 25° C. for 30 minutes
Experimental: as §1

[3] = test system: Formate dehydrogenase (immobilized enzyme); conditions: substrate sodium formate, NAD; 1M additive/buffer pH 7.0; 25° C. for 30 minutes
Experimental: as §1

[4] = test system: Formate dehydrogenase (immobilized enzyme); experiment: Effects of heterocyclic compounds on activity of immobilized formate dehydrogenase (WST1/mPMS, absorbance), Examples 4-8; conditions: for enzyme activity of immobilized enzyme in the presence of the heterocyclic compound (in words): immobilized formate dehydrogenase, Examples 4-8
Experimental: A support was applied a fibrous base material cut in pieces 1 cm^2 in area, followed by drying. Each piece of fibrous base material was allowed to absorb a liquid obtained by mixing 2.5% glutaraldehyde, 20% poly-L-lysine, 10 mM Tris-HCl (pH 8.0), and formate dehydrogenase, followed by drying. Thus, immobilized enzymes were prepared.
The solution was stirred at 25° C. for 30 minutes to induce a reaction. Then, WST1 and mPMS were added for color development. Absorbance was measured with a spectrophotometer (Infinite M200 manufactured by TECAN).

Cl.c1c[nH]cn1 [Example 1, imidazole HCl]
OD [1]: 0.4668

Cl.c1c[nH]cn1 [Example 2, imidazole HCl]
OD [2]: 1.1707

Cl.c1c[nH]cn1 [Example 3, imidazole HCl]
OD [3]: 0.5996

c1cnccn1 [Example 4, Pyrazine]
enzyme activity of immobilized enzyme in the presence of the heterocyclic compound (in words) [4]: excellent enzyme activity; also recorded: significantly improved enzyme activity

O=C1NCCN1 [Example 5, 2-Imidazolidinone]
enzyme activity of immobilized enzyme in the presence of the heterocyclic compound (in words) [4]: excellent enzyme activity; also recorded: significantly improved enzyme activity

C=Cn1ccnc1 [Example 6, 1-Vinylimidazole]
enzyme activity of immobilized enzyme in the presence of the heterocyclic compound (in words) [4]: excellent enzyme activity; also recorded: significantly improved enzyme activity

N[C@@H](Cc1c[nH]cn1)C(=O)O [Example 8, Histidine]
OD ([4]; 0.2M heterocyclic compound, 25° C. for 30 minutes): 1.1902
enzyme activity of immobilized enzyme in the presence of the heterocyclic compound (in words) [4]: excellent enzyme activity

sodium phosphate buffer [Comparative Example 1, reference compound]
OD [1]: 0.1598

sodium phosphate buffer [Comparative Example 3, reference compound]
OD [3]: 0.4134

sodium phosphate buffer [reference compound]
OD [2]: 0.3966
